{
  "source": "paper PMC7577125",
  "about": "(Antimicrobial Agents and Chemotherapy, 2020)",
  "key": {"HBV Cp Y118F": {"system": "HBV Cp Y118F", "experiment": "microbe, parasite or virus in culture", "type": "cell-based, Hepatitis B virus", "conditions": "for EC50: Hepatitis B virus, Huh-7, read-out: Mean EC50"}, "HBV Cp Y38C": {"system": "HBV Cp Y38C", "experiment": "microbe, parasite or virus in culture", "type": "cell-based, Hepatitis B virus", "conditions": "for EC50: Hepatitis B virus, Huh-7, read-out: Mean EC50"}, "HBV Cp T33N": {"system": "HBV Cp T33N", "experiment": "microbe, parasite or virus in culture", "type": "cell-based, Hepatitis B virus", "conditions": "for EC50: Hepatitis B virus, Huh-7, read-out: Mean EC50"}, "HBV Cp D29G": {"system": "HBV Cp D29G", "experiment": "microbe, parasite or virus in culture", "type": "cell-based, Hepatitis B virus", "conditions": "for EC50: Hepatitis B virus, Huh-7, read-out: Mean EC50"}, "HBV [1]": {"system": "HBV", "experiment": "Extracellular HBV DNA and pgRNA in HepAD38 cells (qPCR, RT-qPCR)", "type": "cell-based, Hepatitis B virus", "conditions": "HepAD38; concn ETV 0.01, ABI-H0731 2.0, GLS4 0.5, NVR 3-778 2.5, AT-130 0.8, VRD-32 0.8 μM", "from_the_text": "For HBV RNA Northern blot analysis, total cellular RNA or encapsidated pgRNA samples were resolved in a 1.5% agarose gel containing 2.2 M formaldehyde and transferred onto a Hybond-XL membrane (GE Healthcare). For DNA Southern blot analysis, HBV core DNA or cccDNA samples were resolved by electrophoresis in a 1.2% agarose gel and blotted onto a Hybond-XL membrane. Membranes were probed with either an [α-^32P]UTP (3,000 Ci/mmol; PerkinElmer)-labeled plus-strand-specific (for Northern blot hybridization) or minus-strand-specific (for Southern blot hybridization) HBV riboprobe and exposed to a phosphorimager screen. Extracellular HBV DNA and RNA were copurified from the culture medium of induced HepAD38 cells by using a MinElute virus vacuum kit (Qiagen). Viral DNA was quantified using the above-mentioned qPCR method directly, and HBV RNA was detected by RT-qPCR with the same core region primer/probe set after the removal of DNA contamination by DNase I (Thermo Fisher) treatment."}, "HBV Cp Y38F": {"system": "HBV Cp Y38F", "experiment": "microbe, parasite or virus in culture", "type": "cell-based, Hepatitis B virus", "conditions": "for EC50: Hepatitis B virus, Huh-7, read-out: Mean EC50"}, "HBV [2]": {"system": "HBV", "experiment": "HBV RNA/DNA analyses in induced HepAD38 cells (Northern/Southern blot)", "type": "cell-based, Hepatitis B virus", "conditions": "HepAD38, 10-fold over VR EC50"}, "HBV Cp P25A": {"system": "HBV Cp P25A", "experiment": "microbe, parasite or virus in culture", "type": "cell-based, Hepatitis B virus", "conditions": "for EC50: Hepatitis B virus, Huh-7, read-out: Mean EC50"}, "HBV Cp I105T": {"system": "HBV Cp I105T", "experiment": "microbe, parasite or virus in culture", "type": "cell-based, Hepatitis B virus", "conditions": "for EC50: Hepatitis B virus, Huh-7, read-out: Mean EC50"}, "HBV Cp T109I": {"system": "HBV Cp T109I", "experiment": "microbe, parasite or virus in culture", "type": "cell-based, Hepatitis B virus", "conditions": "for EC50: Hepatitis B virus, Huh-7, read-out: Mean EC50"}, "HBV Cp I105L": {"system": "HBV Cp I105L", "experiment": "microbe, parasite or virus in culture", "type": "cell-based, Hepatitis B virus", "conditions": "for EC50: Hepatitis B virus, Huh-7, read-out: Mean EC50"}, "HBV Cp T109M": {"system": "HBV Cp T109M", "experiment": "microbe, parasite or virus in culture", "type": "cell-based, Hepatitis B virus", "conditions": "for EC50: Hepatitis B virus, Huh-7, read-out: Mean EC50"}, "HBV Cp Wild type": {"system": "HBV Cp Wild type", "experiment": "microbe, parasite or virus in culture", "type": "cell-based, Hepatitis B virus", "conditions": "for EC50: Hepatitis B virus, Huh-7, read-out: Mean EC50"}, "[3]": {"system": "HBV (genotype D, subtype ayw)", "experiment": "HBV replication assay in HepAD38 cells", "type": "cell-based, Hepatitis B virus", "conditions": "Hepatitis B virus, HePAD38, HepAD38; total intracellular viral DNA; read-out: Mean EC50, viral DNA"}, "HBV [4]": {"system": "HBV", "experiment": "HBV infection of primary human hepatocytes (PHHs)", "type": "cell-based", "conditions": "Hepatitis B virus, Hepatocyte, PHH"}, "HBV [5]": {"system": "HBV", "experiment": "HBV infection of HepG2-NTCP cells", "type": "cell-based", "conditions": "Hepatitis B virus"}, "[6]": {"conditions": "total intracellular viral DNA, read-out: Mean EC50, viral DNA"}},
  "data": [
    {"smiles": "O=C1CO[C@H](c2cn(-c3ccc(F)cc3)nc2-c2ccc(F)cc2)N1CCc1ccc(O)cc1", "note": "[VRD-32]", "values": [
      {"measurement": "EC50", "setting": "HBV Cp Y118F", "result": "805 ± 423", "unit": "nM"},
      {"measurement": "Fold shift", "setting": "HBV Cp Y118F; Y118F vs wild type", "result": 50, "unit": "fold"},
      {"measurement": "EC50", "setting": "HBV Cp Y38C", "result": "20 ± 1.4", "unit": "nM"},
      {"measurement": "Fold shift", "setting": "HBV Cp Y38C; Y38C vs wild type", "result": 1.2, "unit": "fold"},
      {"measurement": "EC50", "setting": "HBV Cp T33N", "result": 1290, "unit": "nM"},
      {"measurement": "Fold shift", "setting": "HBV Cp T33N; T33N vs wild type", "result": 80, "unit": "fold"},
      {"measurement": "Fold shift", "setting": "HBV Cp D29G; D29G vs wild type", "result": 0.9, "unit": "fold"},
      {"measurement": "EC50", "setting": "HBV Cp D29G", "result": "13.8 ± 1", "unit": "nM"},
      {"measurement": "Extracellular DNA content (% of DMSO control)", "setting": "HBV [1]", "result": "0.3 % of DMSO control"},
      {"measurement": "Extracellular pgRNA content (% of DMSO control)", "setting": "HBV [1]", "result": "0.9 % of DMSO control"},
      {"measurement": "EC50", "setting": "HBV Cp Y38F", "result": "20 ± 10", "unit": "nM"},
      {"measurement": "Fold shift", "setting": "HBV Cp Y38F; Y38F vs wild type", "result": 1.3, "unit": "fold"},
      {"measurement": "Levels of encapsidated pgRNA by Northern blotting", "setting": "HBV [2]", "result": "virtually undetectable"},
      {"measurement": "rcDNA detection by Southern blot", "setting": "HBV [2]", "result": "could not be detected"},
      {"measurement": "EC50", "setting": "HBV Cp P25A", "result": "15.9 ± 0.04", "unit": "nM"},
      {"measurement": "Fold shift", "setting": "HBV Cp P25A; P25A vs wild type", "result": 1, "unit": "fold"},
      {"measurement": "EC50", "setting": "HBV Cp I105T", "result": "103 ± 87", "unit": "nM"},
      {"measurement": "Fold shift", "setting": "HBV Cp I105T; I105T vs wild type", "result": 6.4, "unit": "fold"},
      {"measurement": "EC50", "setting": "HBV Cp T109I", "result": "15.8 ± 1.9", "unit": "nM"},
      {"measurement": "Fold shift", "setting": "HBV Cp T109I; T109I vs wild type", "result": 1, "unit": "fold"},
      {"measurement": "EC50", "setting": "HBV Cp I105L", "result": "40 ± 19", "unit": "nM"},
      {"measurement": "Fold shift", "setting": "HBV Cp I105L; I105L vs wild type", "result": 2.5, "unit": "fold"},
      {"measurement": "EC50", "setting": "HBV Cp T109M", "result": "25 ± 23", "unit": "nM"},
      {"measurement": "Fold shift", "setting": "HBV Cp T109M; T109M vs wild type", "result": 1.6, "unit": "fold"},
      {"measurement": "EC50", "setting": "HBV Cp Wild type", "result": "16.1 ± 7.8", "unit": "nM"},
      {"measurement": "Fold shift", "setting": "HBV Cp Wild type; Wild type", "result": 1, "unit": "fold"}
    ]},
    {"smiles": "CCOC(=O)C1=C(CN2CCOCC2)NC(c2nccs2)=NC1c1ccc(F)cc1Br", "note": "(centres unmarked) [GLS4]", "values": [
      {"measurement": "EC50", "setting": "HBV Cp Y118F", "result": "84.7 ± 2.3", "unit": "nM"},
      {"measurement": "EC50", "setting": "HBV Cp Y38C", "result": "17 ± 9.5", "unit": "nM"},
      {"measurement": "EC50", "setting": "HBV Cp T33N", "result": 6340, "unit": "nM"},
      {"measurement": "EC50", "setting": "HBV Cp D29G", "result": "16.1 ± 0.4", "unit": "nM"},
      {"measurement": "Extracellular DNA content (% of DMSO control)", "setting": "HBV [1]", "result": "0.1 % of DMSO control"},
      {"measurement": "Extracellular pgRNA content (% of DMSO control)", "setting": "HBV [1]", "result": "0.1 % of DMSO control"},
      {"measurement": "EC50", "setting": "HBV Cp Y38F", "result": "65 ± 17", "unit": "nM"},
      {"measurement": "EC50", "setting": "[3]", "result": "29 ± 9", "unit": "nM"},
      {"measurement": "Levels of encapsidated pgRNA by Northern blotting", "setting": "HBV [2]", "result": "virtually undetectable"},
      {"measurement": "rcDNA detection by Southern blot", "setting": "HBV [2]", "result": "could not be detected"},
      {"measurement": "EC50", "setting": "HBV Cp P25A", "result": "451 ± 3.3", "unit": "nM"},
      {"measurement": "EC50", "setting": "HBV Cp I105T", "result": "17 ± 2.7", "unit": "nM"},
      {"measurement": "EC50", "setting": "HBV Cp T109I", "result": "237 ± 16.6", "unit": "nM"},
      {"measurement": "EC50", "setting": "HBV Cp I105L", "result": "12 ± 6.5", "unit": "nM"},
      {"measurement": "EC50", "setting": "HBV Cp T109M", "result": "15 ± 5.6", "unit": "nM"},
      {"measurement": "EC50", "setting": "HBV Cp Wild type", "result": "17.9 ± 0.4", "unit": "nM"},
      {"measurement": "EC50", "setting": "HBV [4]; read-out: EC50, HBeAg", "result": 1480, "unit": "nM"},
      {"measurement": "EC50", "setting": "HBV [4]; read-out: EC50, HBsAg", "result": 1860, "unit": "nM"},
      {"measurement": "EC50", "setting": "HBV [4]; read-out: EC50, pgRNA", "result": 1930, "unit": "nM"},
      {"measurement": "EC50", "setting": "HBV [4]; [6]", "result": 1940, "unit": "nM"},
      {"measurement": "EC50", "setting": "HBV [5]; read-out: EC50, HBeAg production", "result": 550, "unit": "nM"},
      {"measurement": "EC50", "setting": "HBV [5]; read-out: EC50, HBsAg production", "result": 670, "unit": "nM"},
      {"measurement": "EC50", "setting": "HBV [5]; read-out: EC50, pgRNA production", "result": 280, "unit": "nM"},
      {"measurement": "EC50", "setting": "HBV [5]; read-out: Mean EC50, HBeAg", "result": "549 ± 48", "unit": "nM"},
      {"measurement": "EC50", "setting": "HBV [5]; read-out: Mean EC50, HBsAg", "result": "673 ± 41", "unit": "nM"},
      {"measurement": "EC50", "setting": "HBV [5]; read-out: Mean EC50, pgRNA", "result": "279 ± 43", "unit": "nM"},
      {"measurement": "EC50", "setting": "HBV [5]; [6]", "result": "58 ± 6", "unit": "nM"}
    ]}
  ]
}
